A word on the IC50: it is the concentration at which inhibition is half-maximal. Read a high IC50 as a need for much substance.

The target of the assay is ALK tyrosine kinase receptor (Homo sapiens, UniProt Q9UM73). The experiment in a line: Inhibition of baculovirus expressed GST-tagged human ALK cytoplasmic domain using PLCgamma as substrate after 15 mins by time-resolved fluorescence analysis.
Sequence of ALK tyrosine kinase receptor (Q9UM73 whole entry, the tested form may be a part): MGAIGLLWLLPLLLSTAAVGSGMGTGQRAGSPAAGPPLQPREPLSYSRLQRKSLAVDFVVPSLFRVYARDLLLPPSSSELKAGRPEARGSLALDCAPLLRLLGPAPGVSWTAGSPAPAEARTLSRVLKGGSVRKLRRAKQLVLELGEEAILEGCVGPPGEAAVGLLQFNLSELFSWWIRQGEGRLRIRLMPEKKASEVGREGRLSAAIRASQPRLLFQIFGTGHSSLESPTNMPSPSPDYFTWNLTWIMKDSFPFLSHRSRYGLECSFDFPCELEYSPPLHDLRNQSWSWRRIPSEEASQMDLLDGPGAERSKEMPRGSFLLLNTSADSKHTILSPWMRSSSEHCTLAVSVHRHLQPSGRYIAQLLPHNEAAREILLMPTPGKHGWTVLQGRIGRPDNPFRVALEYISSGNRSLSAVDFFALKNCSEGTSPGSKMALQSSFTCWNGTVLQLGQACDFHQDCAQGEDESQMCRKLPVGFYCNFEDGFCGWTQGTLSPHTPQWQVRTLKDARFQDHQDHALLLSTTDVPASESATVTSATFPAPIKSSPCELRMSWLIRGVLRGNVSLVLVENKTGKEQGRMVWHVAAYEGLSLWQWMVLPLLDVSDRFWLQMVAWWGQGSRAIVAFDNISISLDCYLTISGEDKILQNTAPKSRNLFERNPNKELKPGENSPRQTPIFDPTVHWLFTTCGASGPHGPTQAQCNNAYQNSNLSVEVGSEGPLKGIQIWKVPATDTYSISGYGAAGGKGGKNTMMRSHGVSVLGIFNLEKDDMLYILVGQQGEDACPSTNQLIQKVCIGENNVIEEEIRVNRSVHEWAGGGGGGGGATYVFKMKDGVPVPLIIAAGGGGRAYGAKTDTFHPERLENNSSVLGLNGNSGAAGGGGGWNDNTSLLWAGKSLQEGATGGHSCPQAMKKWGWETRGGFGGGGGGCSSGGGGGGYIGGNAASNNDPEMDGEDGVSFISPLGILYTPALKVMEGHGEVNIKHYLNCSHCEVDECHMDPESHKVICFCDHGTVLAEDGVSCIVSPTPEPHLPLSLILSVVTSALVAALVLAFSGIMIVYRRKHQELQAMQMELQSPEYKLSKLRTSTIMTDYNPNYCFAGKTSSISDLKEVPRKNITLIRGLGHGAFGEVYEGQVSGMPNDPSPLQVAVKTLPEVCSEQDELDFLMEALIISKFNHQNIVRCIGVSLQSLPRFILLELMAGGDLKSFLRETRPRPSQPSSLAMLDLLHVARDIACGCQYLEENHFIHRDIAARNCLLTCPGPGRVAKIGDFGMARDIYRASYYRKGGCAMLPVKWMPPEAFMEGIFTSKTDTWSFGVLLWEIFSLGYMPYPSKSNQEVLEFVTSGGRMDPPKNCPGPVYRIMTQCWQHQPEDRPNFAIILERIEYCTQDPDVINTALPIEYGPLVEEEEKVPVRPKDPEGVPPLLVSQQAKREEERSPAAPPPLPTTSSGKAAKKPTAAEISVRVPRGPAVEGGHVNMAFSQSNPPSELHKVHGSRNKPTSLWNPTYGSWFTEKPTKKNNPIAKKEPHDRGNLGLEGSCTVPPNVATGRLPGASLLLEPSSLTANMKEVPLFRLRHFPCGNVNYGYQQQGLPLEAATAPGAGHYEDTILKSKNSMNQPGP
`Clc1cnc2nc1Nc1cccc(c1)CCc1cccc(c1)N2` displayed an IC50 of more than 10 µM.
In turn, `Clc1cnc2nc1Nc1cccc(c1)CCc1cc(ccc1N1CCOCC1)N2` came in with an IC50 of more than 10 µM.
The figure for `COc1ccc2cc1Nc1nc(ncc1Cl)Nc1ccc(N3CCOCC3)c(c1)CC2` is more than 1 µM.

Source of the values: ChEMBL document CHEMBL1944522, “Design, synthesis, and anaplastic lymphoma kinase (ALK) inhibitory activity for a novel series of 2,4,8,22-tetraazatetracyclo[14.3.1.1³,⁷.1⁹,¹³]docosa-1(20),3(22),4,6,9(21),10,12,16,18-nonaene macrocycles” (J Med Chem, 2012).
